Results: ChEMBL document CHEMBL5352386 (Eur J Med Chem, 2022)
Activity calls are given as the source filed them. The calls are words filed in the database; no cut-off is given here.

Experiments:
L02 [1] = experiment: Cytotoxicity against human L02 cells assessed as survival rate at 100 uM measured after 24 hrs by MTT assay relative to control; assay type: functional; conditions: read-out: Survival
Cholinesterase [2] = target: Cholinesterase (Equus caballus, UniProt P81908); experiment: Inhibition of equine serum BuChE using butyrylthiocholine iodide as substrate incubated for 10 mins followed by substrate addition by DTNB-reagent based Ellman's colorimetric assay
Chain of Cholinesterase (Equus caballus, UniProt P81908) (P81908 whole entry): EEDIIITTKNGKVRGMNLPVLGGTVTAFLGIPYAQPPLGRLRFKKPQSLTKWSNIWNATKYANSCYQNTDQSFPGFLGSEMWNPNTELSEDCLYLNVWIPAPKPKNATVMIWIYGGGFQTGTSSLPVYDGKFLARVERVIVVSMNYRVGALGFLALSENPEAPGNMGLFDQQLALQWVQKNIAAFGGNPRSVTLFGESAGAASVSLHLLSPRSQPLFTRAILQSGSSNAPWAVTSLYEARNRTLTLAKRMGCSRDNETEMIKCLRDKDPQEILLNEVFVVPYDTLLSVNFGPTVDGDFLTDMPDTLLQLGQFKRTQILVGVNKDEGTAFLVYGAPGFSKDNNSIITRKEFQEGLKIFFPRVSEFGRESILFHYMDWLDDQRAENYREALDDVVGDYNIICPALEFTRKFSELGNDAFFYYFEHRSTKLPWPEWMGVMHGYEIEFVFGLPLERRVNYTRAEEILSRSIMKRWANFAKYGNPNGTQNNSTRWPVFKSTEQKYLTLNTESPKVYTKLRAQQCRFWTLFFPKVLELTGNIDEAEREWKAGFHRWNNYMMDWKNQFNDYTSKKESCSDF

[3] = Cytotoxicity against mouse BV-2 cells assessed as survival rate at 100 uM measured after 24 hrs by MTT assay relative to control; assay type: toxicity, cell-based; conditions: read-out: Survival
SH-SY5Y [4] = experiment: Cytotoxicity against human SH-SY5Y cells assessed as survival rate at 2.5 uM measured after 24 hrs by MTT assay relative to control; assay type: functional; conditions: read-out: Survival
PC-12 [5] = experiment: Cytotoxicity against rat PC12 cells assessed as survival rate at 100 uM measured after 24 hrs by MTT assay relative to control; conditions: PC-12, 24 h, read-out: Survival
Cholinesterase [6] = target: T1, Cholinesterase (Homo sapiens, UniProt P06276); experiment: Inhibition of human BuChE using butyrylthiocholine iodide as substrate incubated for 10 mins followed by substrate addition by DTNB-reagent based Ellman's colorimetric assay
T1 sequence (P06276 whole entry): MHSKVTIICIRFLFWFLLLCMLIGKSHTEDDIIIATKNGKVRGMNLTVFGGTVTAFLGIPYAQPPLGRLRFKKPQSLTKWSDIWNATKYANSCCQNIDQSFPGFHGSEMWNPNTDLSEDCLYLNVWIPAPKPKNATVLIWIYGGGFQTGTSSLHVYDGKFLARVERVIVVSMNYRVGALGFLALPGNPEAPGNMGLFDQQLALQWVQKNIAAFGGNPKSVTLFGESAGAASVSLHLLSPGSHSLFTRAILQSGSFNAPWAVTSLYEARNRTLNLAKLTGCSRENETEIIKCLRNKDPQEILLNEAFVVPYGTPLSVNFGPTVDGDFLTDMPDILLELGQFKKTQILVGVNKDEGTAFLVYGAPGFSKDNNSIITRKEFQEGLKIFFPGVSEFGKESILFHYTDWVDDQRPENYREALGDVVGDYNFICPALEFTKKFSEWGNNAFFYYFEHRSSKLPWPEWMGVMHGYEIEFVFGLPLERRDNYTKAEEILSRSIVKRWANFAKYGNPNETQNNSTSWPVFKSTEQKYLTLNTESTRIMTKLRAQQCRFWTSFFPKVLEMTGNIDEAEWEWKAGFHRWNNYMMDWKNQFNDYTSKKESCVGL

PC-12 [7] = experiment: Cytotoxicity against rat PC12 cells assessed as inhibition of cell growth measured after 24 hrs by MTT assay; assay type: functional, cell-based; conditions: PC-12, 24 h
L02 [8] = experiment: Cytotoxicity against human L02 cells assessed as inhibition of cell growth measured after 24 hrs by MTT assay; assay type: functional, cell-based; conditions: L02, 24 h
SH-SY5Y [9] = experiment: Cytotoxicity against human SH-SY5Y cells assessed as inhibition of cell growth measured after 24 hrs by MTT assay; assay type: functional, cell-based
Mus musculus [10] = experiment: Neuroprotective activity against Abeta42 induced cognition impairement in AD mouse model assessed as reduction in latency time to platform at 10 mg/kg, po measured after 14 days by Morris water maze analysis; assay type: functional, organism-based; conditions: time 14.0 day
Mus musculus [11] = experiment: Neuroprotective activity against Abeta42 induced cognition impairement in AD mouse model assessed as reduction in confusion of escape trajectory at 10 mg/kg, po measured after 14 days; assay type: functional, organism-based; conditions: time 14.0 day
[12] = Cytotoxicity against mouse BV-2 cells assessed as inhibition of cell growth measured after 24 hrs by MTT assay; assay type: toxicity, cell-based
SH-SY5Y [13] = experiment: Cytotoxicity against human SH-SY5Y cells assessed as survival rate at 100 uM measured after 24 hrs by MTT assay relative to control; assay type: functional; conditions: read-out: Survival
L02 [14] = experiment: Cytotoxicity against human L02 cells assessed as survival rate at 2.5 uM measured after 24 hrs by MTT assay relative to control; assay type: functional; conditions: read-out: Survival
[15] = Cytotoxicity against mouse BV-2 cells assessed as survival rate at 2.5 uM measured after 24 hrs by MTT assay relative to control; assay type: toxicity, cell-based; conditions: read-out: Survival
BV-2 = experiment: Induction of antioxidant effect in mouse BV-2 cells assessed as prevention of LPS-induced ROS production preincubated for 1 hr with compound followed by LPS stimulation and measured after 24 hrs by DCFH-DA staining based inverted fluorescence microscopy analysis; assay type: functional, cell-based; conditions: time 25.0 hrs
[16] = Metabolic stability in human liver microsomes assessed as half life at 1 uM incubated upto 50 mins in presence of NADPH by LC/MS/MS analysis; assay type: ADME, Microsome
[17] = Acute toxicity in overnight fasted female ICR mouse assessed as abnormal behavior at 1 g/Kg, IG administered as single dose measured upto 15 days; conditions: in vivo, po, 1000 mg/kg, 360 h, time < 15 day
SH-SY5Y [18] = experiment: Neuroprotective activity against Abeta1-42 induced toxicity in human SH-SY5Y cells at 1 to 5 uM preincubated for 1 hr with compound followed by co-incubation with Abeta1-42 and measured after 24 hrs by MTT assay; assay type: functional, cell-based; conditions: dose 1-5 µM, time 25.0 hrs
SH-SY5Y [19] = experiment: Neuroprotective activity against glutamate induced toxicity in human SH-SY5Y cells at low concentration preincubated for 1 hr with compound followed by co-incubation with glutamate and measured after 24 hrs by MTT assay; assay type: functional, cell-based; conditions: time 25.0 hrs
[20] = Metabolic stability in human liver microsomes assessed as parent compound remaining at 1 uM incubated upto 50 mins in presence of NADPH by LC/MS/MS analysis; assay type: ADME, Microsome; conditions: read-out: Stability
[21] = Acute toxicity in overnight fasted male ICR mouse assessed as body weight loss at 1 g/Kg, IG administered as single dose measured upto 15 days; conditions: in vivo, po, 1000 mg/kg, 360 h, time < 15 day
SH-SY5Y [22] = experiment: Neuroprotective activity against glutamate induced toxicity in human SH-SY5Y cells assessed as effect on cell survival rate at 10 to 20 uM preincubated for 1 hr with compound followed by co-incubation with glutamate and measured after 24 hrs by MTT assay; assay type: functional, cell-based; conditions: dose 10-20 µM, time 25.0 hrs
[23] = Acute toxicity in overnight fasted female ICR mouse assessed as animal death at 1 g/Kg, IG administered as single dose measured upto 15 days; conditions: in vivo, po, 1000 mg/kg, 360 h, time < 15 day
Cholinesterase [24] = target: T1, Cholinesterase; experiment: Binding affinity to human BChE assessed as dissociation constant by Surface Plasmon Resonance assay
[25] = Acute toxicity in overnight fasted male ICR mouse assessed as abnormal behavior at 1 g/Kg, IG administered as single dose measured upto 15 days; conditions: in vivo, po, 1000 mg/kg, 360 h, time < 15 day
PC-12 [26] = experiment: Cytoprotective activity against H2O2 induced cell damage in rat PC12 cells at 10 to 20 uM preincubated for 1 hr with compound followed by co-incubation with H2O2 and measured after 24 hrs by MTT assay; assay type: functional, cell-based; conditions: dose 10-20 µM, time 25.0 hrs
[27] = Acute toxicity in overnight fasted male ICR mouse assessed as animal death at 1 g/Kg, IG administered as single dose measured upto 15 days; conditions: in vivo, po, 1000 mg/kg, 360 h, time < 15 day
SH-SY5Y [28] = experiment: Induction of antioxidant effect in human SH-SY5Y cells assessed as prevention of Abeta1-42 induced ROS production preincubated for 1 hr with compound followed by Abeta1-42 stimulation and measured after 24 hrs by DCFH-DA staining based inverted fluorescence microscopy analysis; assay type: functional, cell-based; conditions: time 25.0 hrs
[29] = Acute toxicity in overnight fasted female ICR mouse assessed as body weight loss at 1 g/Kg, IG administered as single dose measured upto 15 days; conditions: in vivo, po, 1000 mg/kg, 360 h, time < 15 day

Row | Compound | viability at 100 µM (L02 [1]) [%] | IC50 (Cholinesterase [2]) [nM] | viability at 24 h, 100 µM [3] [%] | viability at 2.5 µM (SH-SY5Y [4]) [%] | viability at 100 µM (PC-12 [5]) [%] | IC50 (Cholinesterase [6]) [nM] | IC50 (PC-12 [7]) [nM] | other results
1 | Nc1nonc1-c1nc2ccccc2n1CC(=O)Nc1cc(F)cc(Cl)c1 | 91.7 | 5.32 | 111 | 28.1 | 58 | 155 | – | –
2 | Nc1nonc1-c1nc2ccccc2n1CC(=O)Nc1cc(Cl)cc(C(F)(F)F)c1 | – | 2.63 | 90 | – | – | 113 | 46200 | IC50 (L02 [8]): 2480 nM; IC50 (SH-SY5Y [9]): 10600 nM
3 | Cc1cc(C)cc(NC(=O)Cn2c(-c3nonc3N)nc3ccccc32)c1 | 85.9 | 13 | 85.9 | – | 69.7 | 885 | – | IC50 (SH-SY5Y [9]): 7500 nM
4 | Nc1nonc1-c1nc2ccccc2n1CC(=O)Nc1ccc([N+](=O)[O-])c(Cl)c1 | 52.6 | 11 | 52.6 | – | – | 749 | 27800 | IC50 (SH-SY5Y [9]): 24900 nM
5 | Nc1nonc1-c1nc2ccccc2n1CC(=O)Nc1cc(Cl)cc(Cl)c1 | 94.2 | 4.27 | 52.1 | 45.8 | – | 30.4 | 13600 | –
6 | COc1cc2c(cc1OC)C(=O)C(CC1CCN(Cc3ccccc3)CC1)C2 (centres undefined) | – | – | – | – | – | – | – | Activity (Mus musculus [10]): Active; Activity (Mus musculus [11]): Active
7 | Cc1cc(Cl)cc(NC(=O)Cn2c(-c3nonc3N)nc3ccccc32)c1 | 65.9 | 9.16 | 56.3 | 32.1 | 54.3 | 101 | – | –
8 | Cc1cc(Br)cc(NC(=O)Cn2c(-c3nonc3N)nc3ccccc32)c1 | 71.4 | 6.38 | 92.6 | 31 | 58.9 | 218 | – | –
9 | Cc1cc(NC(=O)Cn2c(-c3nonc3N)nc3ccccc32)cc([N+](=O)[O-])c1 | 79.1 | 47.6 | 79.8 | – | – | 278 | 28800 | IC50 (SH-SY5Y [9]): 58900 nM
10 | COc1cc(NC(=O)Cn2c(-c3nonc3N)nc3ccccc32)cc(OC)c1 | 72.8 | 107 | – | 24.6 | 88.8 | 309 | – | IC50 at 24 h [12]: 6300 nM
11 | Nc1nonc1-c1nc2ccccc2n1CC(=O)Nc1cc(F)cc(F)c1 | 60.6 | 58 | – | – | 84.4 | 3680 | – | IC50 at 24 h [12]: 25400 nM; viability at 100 µM (SH-SY5Y [13]): 56.2%
12 | Nc1nonc1-c1nc2ccccc2n1CC(=O)Nc1cc(Br)cc(C(F)(F)F)c1 | 75.8 | 4.21 | 56.3 | 44.7 | – | 12.4 | 11400 | –
13 | Nc1nonc1-c1nc2ccccc2n1CC(=O)Nc1cc(F)cc(C(F)(F)F)c1 | – | 255 | – | 23.4 | 74.4 | 155 | – | viability at 2.5 µM (L02 [14]): 39.5%; viability at 24 h, 2.5 µM [15]: 39.5%
14 | N#Cc1cc(Cl)cc(NC(=O)Cn2c(-c3nonc3N)nc3ccccc32)c1 | – | 2.04 | 64.7 | 24.6 | 87 | 83.9 | – | viability at 2.5 µM (L02 [14]): 44.5%
15 | Nc1nonc1-c1nc2ccccc2n1CC(=O)Nc1cc(Br)cc(Br)c1 | 85.3 | 3.84 | 52 | 27.3 | – | 27.9 | 6560 | –
16 | Nc1nonc1-c1nc2ccccc2n1CC(=O)Nc1cc(Cl)cc(Br)c1 | 80.3 | 1.61 | 59.9 | 43.6 | – | 75.7 | 37800 | –
17 | Nc1nonc1-c1nc2ccccc2n1CC(=O)Nc1ccc(F)cc1Br | 89 | 119 | – | 22.4 | 86.6 | 35.7 | – | IC50 at 24 h [12]: 730 nM
18 | Cc1ccc2cc(NC(=O)Cn3c(-c4nonc4N)nc4ccccc43)ccc2n1 | 61.5 | – | – | – | – | – | – | –
19 | Cc1cc(F)cc(NC(=O)Cn2c(-c3nonc3N)nc3ccccc32)c1 | 80 | 57.8 | 97.5 | 26.3 | 75.8 | 453 | – | –
20 | COC(=O)c1cc(NC(=O)Cn2c(-c3nonc3N)nc3ccccc32)cc(C(=O)OC)c1 | 84 | 1.48 | – | – | 50.5 | 222 | – | IC50 at 24 h [12]: 40400 nM; IC50 (SH-SY5Y [9]): 58000 nM
21 | Nc1nonc1-c1nc2ccccc2n1CC(=O)Nc1ccc([N+](=O)[O-])c(Br)c1 | – | 33.7 | – | – | 51.4 | 730 | – | IC50 (L02 [8]): 5490 nM; IC50 at 24 h [12]: 5490 nM; viability at 100 µM (SH-SY5Y [13]): 70.5%
22 | Nc1nonc1-c1nc2ccccc2n1CC(=O)Nc1cc([N+](=O)[O-])cc(C(F)(F)F)c1 | 57.5 | 0.35 | 57.5 | – | – | 71.6 | 18000 | IC50 (SH-SY5Y [9]): 15400 nM
23 | Nc1nonc1-c1nc2ccccc2n1CC(=O)Nc1cc(C(F)(F)F)cc(C(F)(F)F)c1 | 74.2 | 7.72 | 100 | 46.1 | 50.2 | 935 | – | –
24 | Nc1nonc1-c1nc2ccccc2n1CC(=O)Nc1cc([N+](=O)[O-])cc([N+](=O)[O-])c1 | 52.4 | 2.94 | – | – | 50.8 | 34.6 | – | Activity (BV-2): Active; half-life at 1 µM [16]: 11.5 h; Activity [17]: Non-Toxic; Activity (SH-SY5Y [18]): Active; Activity (SH-SY5Y [19]): Active; IC50 at 24 h [12]: 19200 nM; remaining at 50 min, 1 µM [20]: 92.8%; Activity [21]: Non-Toxic; Activity (Mus musculus [10]): Active; Activity (SH-SY5Y [22]): Active; Activity [23]: Non-Toxic; Kd (Cholinesterase [24]): 3.09 nM; Activity (Cholinesterase [24]; dose 0.3125-40 nM): Dose-Dependent Effect; Activity (Mus musculus [11]): Active; Activity [25]: Non-Toxic; Activity (PC-12 [26]): Active; Activity [27]: Non-Toxic; IC50 (SH-SY5Y [9]): 72300 nM; Activity (SH-SY5Y [28]): Active; Activity [29]: Non-Toxic
25 | Nc1nonc1-c1nc2ccccc2n1CC(=O)Nc1cc(F)cc(Br)c1 | 88.4 | 14.3 | 88.4 | 44.2 | 88.3 | 62.2 | – | –
